Assays:
[1] = system: MCF-7, HL-60 and HCT-116 cancer cell lines; experiment: MTT viability assay, values pooled over the cancer cell lines; assay type: cell-based, human; details: Homo sapiens, MCF-7, HL-60 and HCT-116; MTT; read-out: IC50 values range over the three cancer cell lines
Protocol: (§1) All the human tumour cell lines MCF-7, HL-60, HCT-116, and HUVEC were cultured in Dulbecco’s Modified Eagle’s Medium (DMEM) with 10% fetal bovine serum, 2 mM L-glutamine and 100 µg/mL penicillin/streptomycin. Cells were maintained at 37 °C in 5% CO2 in a humidified incubator. All cells were sub-cultured three times/week by trypsinization using TrypLE Express (1X).
(§2) The Benzotriazole compounds were evaluated for antiproliferative effect using the MTT viability assay of various cancer cell lines (MCF-7, HCT-116 and HL-60) and the normal human umbilical vein endothelial cell line (HUVEC) to calculate the relative IC50 values for each compound. Cells were seeded in triplicate in 96-well plates at a density of 10 × 10^3 cells/mL in a total volume of 200 µL per well. 0.1% of DMSO was used as a vehicle control. After this time, they were treated with 2 µL test compound which had been pre-prepared as stock solutions in ethanol to furnish the concentration range of study, 10 nM to 100 µM, and re-incubated for a further 72 h. The culture medium was then removed, and the cells washed with 100 µL phosphate buffered saline (PBS) and 50 µL MTT added, to reach a final concentration of 1 mg/mL MTT added. Cells were incubated for 2 h in darkness at 37 °C. At this point solubilisation was begun through the addition of […] DMSO and the cells maintained at room temperature in darkness for 20 min to ensure thorough colour diffusion before reading the absorbance. Plates were incubated for 72 h at 37 °C + 5% CO2. The MTT (5 mg/mL in PBS) was added and incubated for another 4 h, and the optical density was detected with a microplate reader at 570 nm. Results were expressed as percentage viability relative to vehicle control (100%). Dose response curves were plotted and IC50 values (concentration of drug resulting in 50% reduction in cell survival) were obtained using the commercial software package Prism (GraphPad Software, Inc., La Jolla, CA, USA). All the experiments were repeated in at least three independent experiments.

PARP = experiment: Western blot of PARP cleavage in HL-60 cells; assay type: cell-based, human; details: HL-60, after a 48 h treatment
Protocol: HL-60 cells were seeded at a density of 1 × 10^5 cells/flask in T25 flasks. After 48 h, whole cell lysates were prepared from untreated cells or cells treated with vehicle control (EtOH, 0.1% v/v) or compound BI9 (0.5 and 1 μM). HL-60 cells were harvested in RIPA buffer supplemented with protease inhibitors (Roche Diagnostics), phosphatase inhibitor cocktail 2 (Sigma-Aldrich), and phosphatase inhibitor cocktail 3 (Sigma-Aldrich). Equal quantities of protein (as determined by a BCA assay) were resolved by SDS-PAGE (12%) followed by transfer to PVDF membranes. Membranes were blocked in 5% bovine serum albumin/TBST for 1 h. Membranes were incubated in the relevant primary antibodies at 4 °C overnight, washed with TBST, and incubated in horseradish peroxidase conjugated secondary antibody for 1 h at rt and washed again. Western blot analysis was performed as described above using antibodies directed against BAX [1:1000] (Cell Signaling Technology), PARP [1:500] (Cell Signaling Technology) and Bcl-2 [1:500] (Cell Signaling Technology) followed by incubation with a horseradish peroxidase-conjugated anti-mouse antibody [1:2000] (Promega, Madison, WI, USA). All blots were probed with β-actin antibody [1:5000] (Sigma) to confirm equal loading. Proteins were detected using enhanced chemiluminescent Western blot detection (Clarity Western ECL substrate) (Bio Rad) on the ChemiDoc MP System (Bio Rad). […]

Bcl-2 = experiment: Western blot of Bcl-2 expression in HL-60 cells; assay type: cell-based, human; details: HL-60, 0.5 and 1 µM, compared to the untreated group
Protocol: HL-60 cells were seeded at a density of 1 × 10^5 cells/flask in T25 flasks. […] HL-60 cells were harvested in RIPA buffer supplemented with protease inhibitors (Roche Diagnostics), phosphatase inhibitor cocktail 2 (Sigma-Aldrich), and phosphatase inhibitor cocktail 3 (Sigma-Aldrich). Equal quantities of protein (as determined by a BCA assay) were resolved by SDS-PAGE (12%) followed by transfer to PVDF membranes. Membranes were blocked in 5% bovine serum albumin/TBST for 1 h. Membranes were incubated in the relevant primary antibodies at 4 °C overnight, washed with TBST, and incubated in horseradish peroxidase conjugated secondary antibody for 1 h at rt and washed again. Western blot analysis was performed as described above using antibodies directed against BAX [1:1000] (Cell Signaling Technology), PARP [1:500] (Cell Signaling Technology) and Bcl-2 [1:500] (Cell Signaling Technology) followed by incubation with a horseradish peroxidase-conjugated anti-mouse antibody [1:2000] (Promega, Madison, WI, USA). All blots were probed with β-actin antibody [1:5000] (Sigma) to confirm equal loading. Proteins were detected using enhanced chemiluminescent Western blot detection (Clarity Western ECL substrate) (Bio Rad) on the ChemiDoc MP System (Bio Rad). Experiments were performed on three independent occasions.

[2] = system: HUVEC human umbilical vein endothelial cell line; experiment: MTT viability assay, normal HUVEC cells; assay type: cell-based; details: 72 h, mean ± SD of three independent experiments
Protocol: as §1, §2

HL-60 cells = experiment: Cell cycle analysis by PI flow cytometry; assay type: cell-based, human; details: 1 µM
Protocol: HL-60 cells were seeded at a density of 1 × 10^5 cells/well in 6-well plates and treated with CA-4 and compound BI9 (1 µM) for 48 and 72 h. The cells were collected by trypsinization and centrifuged at 800× g for 15 min. Cells were washed twice with ice-cold PBS and fixed in ice-cold 70% ethanol overnight at −20 °C. Fixed cells were centrifuged at 800× g for 15 min and stained with 50 μg/mL of PI, containing 50 μg/mL of DNase-free RNase A, at 37 °C for 30 min. The DNA content of cells (10,000 cells/experimental group) was analysed by flow cytometer at 488 nm using a FACSCalibur flow cytometer (BD Biosciences, San Jose, CA, USA) and all data were recorded and analysed using the CellQuest Software (Becton-Dickinson).

[3] = system: MCF-7 human breast cancer cell line; experiment: MTT viability assay, MCF-7; assay type: cell-based; details: Homo sapiens, MCF7, 72 h, mean ± SD of three independent experiments, read-out: Antiproliferative Activities IC50, MCF-7
Protocol: as §1, §2

IC50 [1]: 0.4 to 3.3 µM
IC50 [3]: 3.57 ± 0.16 µM
Structure (SMILES): S=c1[nH]c(-n2nnc3ccccc32)cn1-c1ccc(Cl)cc1Cl [BI9, 4-(1H-Benzo[d][1,2,3]Triazol-1-yl)-1-(2,4-Dichlorophenyl)-1H-Imidazole-2(3H)-Thione]
PARP cleavage (indicator of apoptosis) (PARP): confirmed
Expression of pro-survival protein Bcl-2 (Bcl-2): down-regulated
IC50 [2]: > 100 µM
Proportion of HL-60 cells in G2/M phase (HL-60 cells; 48 h): 32.3%
Population in the sub-G1 phase (apoptosis) (HL-60 cells; 48 h, untreated cells 1.5%): 23.1%
Proportion of HL-60 cells in G2/M phase (HL-60 cells; 72 h): 35.1%
Population in the sub-G1 phase (apoptosis) (HL-60 cells; 72 h, untreated cells 3.5%): 27.5%

— PMC8512560, “Design, Synthesis, and Antipoliferative Activities of Novel Substituted Imidazole-Thione Linked Benzotriazole Derivatives” (Molecules, 2021)
